Values after ≈ are worked out from the molar mass of the structure shown.
Key:
[1] = molecular target: T1, HIV-1 reverse transcriptase (Human immunodeficiency virus type 1 group M subtype B, UniProt P03367); assay: Reverse Transcriptase (RT) Assay: inhibition of RNA-dependent DNA polymerase activity, cell-free, poly r(C)/oligo d(G) template, 3H-dGTP substrate; format: biochemical, Human Immunodeficiency Virus (HIV-1), LAV strain; settings: @ 10 μg/ml; room temperature, 60 minutes
T1 construct: Reverse transcriptase enzyme from the LAV strain; made in house; host or cells: E. coli JM109, DNA clone pBRTprtl+ in expression vector pIBI21 (lac promoter)
Source text: Utilizing the Reverse Transcriptase (RT) Assay described below, compounds can be tested for their ability to inhibit the RNA-dependent DNA polymerase activity of HIV RT. Certain specific compounds, described in the Examples which appear below, were so tested. […]
Among the enzymes for which Human Immunodeficiency Virus (HIV-1) encodes is a reverse transcriptase (1), so-named because it transcribes a DNA copy from an RNA template. This activity can be quantitatively measured in a cell-free enzyme assay which has been previously described (2), and is based upon the observation that reverse transcriptase is able to use a synthetic template [poly r(C) primed with oligo d(G)] to transcribe a radio-labelled, acidprecipitable DNA strand utilizing ^3 3H-dGTP as a substrate. […]
a) Preparation of the enzyme
Reverse transcriptase enzyme from the LAV strain of Human Immuno- deficiency Virus (HIV-1) (1) was isolated from the bacterial strain JM109 (3) expressing the DNA clone pBRTprtl+ (2) which is under the control of the lac promotor in the expression vector pIBI21 (4). An overnight culture grown in 2XYT medium (37° C., 225 rpm) (5) supplemented with 100 μg/ml ampicillin for positive selection is inoculated at a 1:40 dilution into M9 medium supplemented with 10μg/ml thiamine, 0.5% casamino acids, and 50 μg/ml ampicillin (5). The culture is incubated (37° C., 225 rpm) until it reaches an 0D540 of 0.3-0.4. At that time the repressor inhibitor IPTG (isopropyl b-D-thiogalactopyranoside) is added to 0.5 mM and incubated for 2 additional hours. Bacteria are pelletted, resuspended in a 50mM Tris, 0.6mM EDTA, 0.375 M NaGl buffer and digested by the addition of lysozyme (1 mg/ml) for 30 minutes on ice. The cells are lysed by the addition to 0.2% NP-40 and brought to 1 M NAGl.
After removal of the insoluble debris by centrifugation, the protein is precipitated by the addition of 3 volumes of saturated aqueous ammonium sulfate. The enzyme is pelleted, resuspended in RT buffer (50 mM Tris pH 7.5, 1 mM EDTA, 5mM DTT, 0.1% NP-40, 0.1M NaCl, and 50% glycerol) and stored at -70° C. for further use. […]
b) Composition of 2X concentrated stock reaction mixture
The 2X concentrated stock reaction mixture is aliquoted and stored at -20° C. The mixture is stable and thawed for use in each assay. This enzyme assay has been adapted to a 96 well microtiter plate system, and has been previously described (6). Tris buffer (50 mM, pH 7.4), vehicle (solvent diluted to match the compound dilution), or compounds in vehicle are dispensed into 96-well microtiter plates (10 μl/well; 3 wells/compound). The HIV RT enzyme is thawed, diluted in 50 mM Tris pH 7.4 so that fifteen μl of diluted enzyme contain 0.001 Unit (one unit is that amount of enzyme to transform 1 micromole of substrate per minute at 25° C.), and 15 μ are dispensed per well. Twenty μl of 0.12-0.5M EDTA are added to the first three wells of the microtiter plate. EDTA thelares the Mg^++ present and prevents reverse transcription. This group serves as background polymerization which is subtracted from all other groups. Twenty-five μl of the 2X reaction mixture are added to all wells and the assay is allowed to incubate at room temperature for 60 minutes. The assay is terminated by precipitating the DNA in each well with 50 μl of 10% trichloracetic acid (TCA) in 1% sodium pyrophosphate. The microtiter plate is incubated for 15 minutes at 4° C. and the precipitate is fixed onto #30 glass fiber paper (Schletcher & Schuell) using a Skatron semi- automatic harvester. The filters are then washed with additional 5% TCA containing 1% sodium pyrophosphate, rinsed with 70% aqueous ethanol, dried, and transferred to scintillation vials (6). Each vial receives 2 mls of scintillation cocktail and is counted in a Beckman beta counter.
Calculations for percent inhibition are as follows [formula] References

[2] = MTT assay for cellular cytotoxicity; format: cell-based; settings: human, H9 cells, five days, read-out: Cytotoxity Assay EC50
Protocol: In order to roughly assess the cytotoxicity of the compounds of formula I, several were tested in the MTT Cellular Cytotoxicity Assay described below. Compounds having a relatively high EC50 are preferred.
MTT ASSAY FOR CELLULAR CYTOTOXICITY
The MTT [3-(4,5-dimethylthiazol-2yl)-2,5 diphenyl tetrazolium bromide) assay is based on cleavage of tetrazolium bromide by metabolically active cells, resulting in a highly quantitative blue color. This assay has been previously described (1) but has been optimized for the purposes of the testing reported herein.
The H9 cell line (2), an established human lymphoma suspension cell line grown in RPMI 1640 supplemented with 10% fetal bovine serum is used as the target cell line in the assay. Cells (100μl) are plated in microtest plate wells at a concentration of 10^5 cells per ml in the presence of varying concentrations of inhibitor. The cells are incubated at 37° C in a humidified CO2 incubator. Five days later, 20 μl of MTT (5 mg/ml in RPMI 1640, sonicated, 0.2 micron filtered, and stored at 4° C.) is added to each well. After 4 hours additional incubation at 37° 60 μl of Triton-X is added to each well and thoroughly mixed to aid the solubiltzation of the crystals. Absolute ethanol (5μ) is added to remove bubbles, and the mixture is incubated for 30 minutes at 60° C. and immediately read on a plate reader (Dynatech) at a wavelength of 570 nm. […]

Compound | inhibition at 10 µg/mL [1] | CC50 at 120 h [2]
CCN1C(=O)c2ccc(C)cc2Oc2ncccc21 [Example 11, 5-Ethyl-9-methylpyrido[2,3-b][1,4]benzoxazepin-6(5H)-one] | 30% | 
C=C(C)CN1C(=O)c2ccccc2Oc2ncccc21 [Example 8, 5-(2-Methyl-2-propen-1-yl)pyrido[2,3-b][1,4]benzoxazepin-6(5H)-one] | 47% | 
C=C(Cl)CN1C(=O)c2ccccc2Oc2ncccc21 [Example 7, 5-(2-Chloro-2-propen-1-yl)pyrido[2,3-b][1,4]benzoxazepin-6(5H)-one] | 66% | 
CN1C(=O)c2cc(N)ccc2Oc2ncccc21 [Example 6, 8-Amino-5-methylpyrido[2,3-b][1,4]benzoxazepin-6(5H)-one] | 50% | 
CN1C(=O)c2ccccc2Oc2ncccc21 [Example 3, 5-Methylpyrido[2,3-b][1,4]benzoxzepin-6(5H)-one] | 30% | 
CSCCN1C(=O)c2ccccc2Oc2nc(Cl)ccc21 [Example 1, 2-Chloro-5-(methylthioethyl)pyrido[2,3-b][1,4]benzoxazepin-6(5H)-one] | 99% | 20 µg/mL (≈ 62.3 µM)
C=CCN1C(=O)c2ccccc2Oc2nc(Cl)ccc21 [Example 2, 5-Allyl-2-chloropyrido[2,3-b][1,4]benzoxazepin-6(5H)-one] | 96% | 
C=CCN1C(=O)c2cccc(C)c2Oc2ncccc21 [Example 10, 5-Allyl-10-methylpyrido[2,3-b][1,4]benzoxazepin-6(5H)-one] | 84% | 
CCC(=O)N1C(=O)c2cc(C)ccc2Oc2ncccc21 [Example 12, 8-Methyl-5-propionylpyrido[2,3-b][1,4]benzoxazepin-6(5H)-one] | 49% | 
CCN1C(=O)c2cccc(C)c2Oc2ncccc21 [Example 5, 5-Ethyl-10-methylpyrido[2,3-b][1,4]benzoxazepin-6(5H)-one] | 83% | 
CC=CCN1C(=O)c2ccccc2Oc2ncccc21 [Example 9, 5-(2-Buten-1-yl)pyrido[2,3-b][1,4]benzoxazepin-6(5H) -one] | 39% | 
CCC(C)N1C(=O)c2ccccc2Oc2ncccc21 (stereo not shown) [Example 4, 5-Sec-butylpyrido[2,3-b][1,4]benzoxazepin-6(5H) -one] | 50% | 

— patent US5547951A, “Pyrido[2,3-b][1,4]benzoxazepin (and thiazepin)-6(5H)-ones and -thiones and their use in the prevention or treatment of HIV-1 infection” (Boehringer Ingelheim Pharamceuticals, Inc., priority 1994, dated 1996)
